Columns and labels:
K562 [1] = assay: Resistance index, ratio of IC50 for drug-resistant human K562/ADR cells to IC50 for drug-sensitive human K562 cells; format: functional
[2] = Cytotoxicity against human drug-resistant K562/ADR cells expressing high levels of P-glycoprotein assessed as reduction in cell viability incubated for 48 hrs by SRB assay; format: functional, cell-based
[3] = molecular target: ATP-dependent translocase ABCB1 (Homo sapiens, UniProt P08183); assay: Inhibition of P-glycoprotein in human drug-resistant K562/ADR cells assessed as reduction in P-gp mediated rhodamine 123 efflux by spectrofluorometry; format: cell-based
Sequence of ATP-dependent translocase ABCB1 (P08183 whole entry): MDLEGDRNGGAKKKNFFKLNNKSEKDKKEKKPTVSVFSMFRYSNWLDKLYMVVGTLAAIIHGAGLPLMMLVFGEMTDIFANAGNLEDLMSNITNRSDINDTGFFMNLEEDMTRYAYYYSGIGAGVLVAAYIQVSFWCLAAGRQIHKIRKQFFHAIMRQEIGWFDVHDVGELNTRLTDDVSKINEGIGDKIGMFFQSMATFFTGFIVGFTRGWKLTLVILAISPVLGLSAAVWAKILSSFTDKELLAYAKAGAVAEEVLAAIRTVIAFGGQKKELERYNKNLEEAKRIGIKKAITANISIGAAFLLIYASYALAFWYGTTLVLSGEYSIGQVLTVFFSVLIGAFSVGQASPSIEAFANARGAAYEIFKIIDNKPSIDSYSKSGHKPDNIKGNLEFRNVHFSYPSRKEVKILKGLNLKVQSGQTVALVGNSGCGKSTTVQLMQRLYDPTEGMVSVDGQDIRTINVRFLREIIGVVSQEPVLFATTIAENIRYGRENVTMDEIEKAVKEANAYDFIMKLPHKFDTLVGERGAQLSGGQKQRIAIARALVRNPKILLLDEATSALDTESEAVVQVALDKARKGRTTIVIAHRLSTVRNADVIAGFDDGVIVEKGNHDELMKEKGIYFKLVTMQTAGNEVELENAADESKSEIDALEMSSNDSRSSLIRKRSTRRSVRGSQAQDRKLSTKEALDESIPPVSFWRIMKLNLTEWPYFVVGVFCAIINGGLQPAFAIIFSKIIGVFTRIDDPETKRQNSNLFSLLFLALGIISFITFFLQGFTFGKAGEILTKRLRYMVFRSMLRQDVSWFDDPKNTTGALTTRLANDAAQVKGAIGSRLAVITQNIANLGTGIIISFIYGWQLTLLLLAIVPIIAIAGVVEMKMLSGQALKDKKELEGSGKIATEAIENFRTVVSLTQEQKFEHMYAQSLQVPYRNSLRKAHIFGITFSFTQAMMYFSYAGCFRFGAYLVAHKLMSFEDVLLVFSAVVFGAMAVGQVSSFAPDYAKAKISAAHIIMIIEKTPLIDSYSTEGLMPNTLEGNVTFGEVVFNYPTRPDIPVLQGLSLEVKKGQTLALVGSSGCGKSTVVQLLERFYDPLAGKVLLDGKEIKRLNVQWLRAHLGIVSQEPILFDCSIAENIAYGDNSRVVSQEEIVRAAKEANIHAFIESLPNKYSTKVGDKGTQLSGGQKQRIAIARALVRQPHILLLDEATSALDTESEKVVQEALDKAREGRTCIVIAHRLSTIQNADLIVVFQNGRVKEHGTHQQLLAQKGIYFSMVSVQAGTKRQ

K562 [4] = assay: Cytotoxicity against human drug-sensitive K562 cells assessed as reduction in cell viability incubated for 48 hrs by SRB assay; format: functional, cell-based; settings: K562, 48 h

Row | Structure (SMILES) | Ki [3] [nM] | Ratio IC50 (K562 [1]) | IC50 [2] [µM] | IC50 (K562 [4]) [µM]
1 | CCN(CC)CCCn1c(=O)/c(=C/c2cc(OC)c(OC)c(OC)c2)s/c1=C1/C(=O)Nc2cc(F)ccc21 | 470 | 1.39 | 1.64 | 1.18
2 | Cc1ccc2c(c1)/C(=c1/s/c(=C\c3ccc(O)cc3)c(=O)n1CCN(C)C)C(=O)N2 | > 2230 | 1.01 | 6.8 | 6.74
3 | CCN(CC)CCCn1c(=O)/c(=C/c2cc(OC)c(OC)c(OC)c2)s/c1=C1/C(=O)Nc2ccc(F)cc21 | 120 | 1.2 | 2.86 | 2.39
4 | CCN(CC)CCCn1c(=O)/c(=C/c2cc(OC)c(OC)c(OC)c2)s/c1=C1\C(=O)Nc2ccc(C)cc21 | 320 | 0.48 | 2.02 | 4.17
5 | CCN(CC)CCCn1c(=O)/c(=C/c2ccc3c(c2)OCO3)s/c1=C1\C(=O)Nc2cc(F)ccc21 | > 2230 | 1.32 | 2.98 | 2.26
6 | CCN(CC)CCCn1c(=O)/c(=C/c2cc(OC)c(OC)c(OC)c2)s/c1=C1/C(=O)Nc2ccc(C)cc21 | 320 | 0.48 | 2.02 | 4.17
7 | CCN(CC)CCCn1c(=O)/c(=C/c2cc(OC)c(OC)c(OC)c2)s/c1=C1\C(=O)Nc2cc(F)ccc21 | 470 | 1.39 | 1.64 | 1.18
8 | CCN(CC)CCCn1c(=O)/c(=C/c2ccccc2O)s/c1=C1/C(=O)Nc2ccc(C)cc21 | 1710 | 2.07 | 30.6 | 14.8
9 | CCN(CC)CCCn1c(=O)/c(=C/c2cc(OC)c(OC)c(OC)c2)s/c1=C1\C(=O)Nc2ccccc21 | 730 | 2.58 | 6.65 | 2.58
10 | CN(C)CCn1c(=O)/c(=C/c2ccc3c(c2)OCO3)s/c1=C1/C(=O)Nc2ccccc21 | > 2230 | 0.59 | 0.78 | 1.32
11 | CN(C)CCn1c(=O)/c(=C/c2ccc3c(c2)OCO3)s/c1=C1\C(=O)Nc2ccccc21 | > 2230 | 0.59 | 0.78 | 1.32
12 | CCN(CC)CCCn1c(=O)/c(=C/c2ccc3c(c2)OCO3)s/c1=C1/C(=O)Nc2ccc(Cl)cc21 | 1780 | 1.04 | 5.05 | 4.86
13 | CCN(CC)CCCn1c(=O)/c(=C/c2ccc(F)cc2F)s/c1=C1\C(=O)Nc2cc(F)ccc21 | 1010 | 1.12 | 4.12 | 3.69
14 | CCN(CC)CCCn1c(=O)/c(=C/c2ccc(F)cc2F)s/c1=C1/C(=O)Nc2cc(F)ccc21 | 1010 | 1.12 | 4.12 | 3.69
15 | CCN(CC)CCCn1c(=O)/c(=C/c2cc(OC)c(OC)c(OC)c2)s/c1=C1\C(=O)Nc2ccc(Cl)cc21 | 220 | 2.02 | 1.65 | 0.82
16 | CCN(CC)CCCn1c(=O)/c(=C/c2ccc3c(c2)OCO3)s/c1=C1\C(=O)Nc2ccc(F)cc21 | > 2230 | 1.7 | 12.5 | 7.38
17 | CCN(CC)CCCn1c(=O)/c(=C/c2ccc(O)cc2)s/c1=C1/C(=O)Nc2ccc(Cl)cc21 | > 2230 | 1.98 | 48.8 | 24.6
18 | CN(C)CCn1c(=O)/c(=C/c2ccc(O)cc2)s/c1=C1\C(=O)Nc2ccccc21 | > 2230 | 1.44 | 6.16 | 4.28
19 | CCN(CC)CCCn1c(=O)/c(=C/c2cc(OC)c(OC)c(OC)c2)s/c1=C1\C(=O)Nc2ccc(F)cc21 | 120 | 1.2 | 2.86 | 2.39
20 | CCN(CC)CCCn1c(=O)/c(=C/c2ccc3c(c2)OCO3)s/c1=C1/C(=O)Nc2ccc(C)cc21 | 940 | 2.46 | 5.03 | 2.04
21 | CN(C)CCn1c(=O)/c(=C/c2ccc(O)cc2)s/c1=C1/C(=O)Nc2ccc(F)cc21 | 1340 | 4.73 | 6.14 | 1.3
22 | CCN(CC)CCCn1c(=O)/c(=C/c2ccc3c(c2)OCO3)s/c1=C1/C(=O)Nc2ccccc21 | 480 | 5.53 | 7.95 | 1.44
23 | CCN(CC)CCCn1c(=O)/c(=C/c2cc(OC)c(OC)c(OC)c2)s/c1=C1/C(=O)Nc2ccccc21 | 730 | 2.58 | 6.65 | 2.58
24 | COc1cccc2c1C(=O)c1c(O)c3c(c(O)c1C2=O)C[C@@](O)(C(=O)CO)C[C@@H]3O[C@H]1C[C@H](N)[C@H](O)[C@H](C)O1 [DOXORUBICIN] |  | 6.75 |  | 

Second part, led by results:

Row | Ki [3] [nM] | Structure (SMILES) | Ratio IC50 (K562 [1]) | IC50 [2] [µM] | IC50 (K562 [4]) [µM]
25 | > 2230 | CN(C)CCn1c(=O)/c(=C/c2ccc(O)cc2)s/c1=C1\C(=O)Nc2cc(F)ccc21 | 1.28 | 7.16 | 5.59
26 | > 2230 | CCN(CC)CCCn1c(=O)/c(=C/c2ccc(O)cc2)s/c1=C1\C(=O)Nc2ccc(Cl)cc21 | 1.98 | 48.8 | 24.6
27 | > 2230 | CCN(CC)CCCn1c(=O)/c(=C/c2ccc3c(c2)OCO3)s/c1=C1/C(=O)Nc2ccc(F)cc21 | 1.7 | 12.5 | 7.38
28 | > 2230 | Cc1ccc2c(c1)/C(=c1\s/c(=C\c3ccc(O)cc3)c(=O)n1CCN(C)C)C(=O)N2 | 1.01 | 6.8 | 6.74
29 | > 2230 | CCN(CC)CCCn1c(=O)/c(=C/c2ccc(F)c(F)c2)s/c1=C1\C(=O)Nc2ccc(F)cc21 | 0.48 | 6.48 | 13.4
30 | > 2230 | CCN(CC)CCCn1c(=O)/c(=C/c2ccc(F)c(F)c2)s/c1=C1/C(=O)Nc2ccc(F)cc21 | 0.48 | 6.48 | 13.4
31 | > 2230 | CN(C)CCn1c(=O)/c(=C/c2ccc(O)cc2)s/c1=C1/C(=O)Nc2ccccc21 | 1.44 | 6.16 | 4.28
32 | 1340 | CN(C)CCn1c(=O)/c(=C/c2ccc(O)cc2)s/c1=C1\C(=O)Nc2ccc(F)cc21 | 4.73 | 6.14 | 1.3
33 | > 2230 | CN(C)CCn1c(=O)/c(=C/c2ccc(O)cc2)s/c1=C1/C(=O)Nc2cc(F)ccc21 | 1.28 | 7.16 | 5.59
34 | 940 | CCN(CC)CCCn1c(=O)/c(=C/c2ccc3c(c2)OCO3)s/c1=C1\C(=O)Nc2ccc(C)cc21 | 2.46 | 5.03 | 2.04
35 | 1710 | CCN(CC)CCCn1c(=O)/c(=C/c2ccccc2O)s/c1=C1\C(=O)Nc2ccc(C)cc21 | 2.07 | 30.6 | 14.8
36 | 480 | CCN(CC)CCCn1c(=O)/c(=C/c2ccc3c(c2)OCO3)s/c1=C1\C(=O)Nc2ccccc21 | 5.53 | 7.95 | 1.44
37 | > 2230 | CCN(CC)CCCn1c(=O)/c(=C/c2ccc3c(c2)OCO3)s/c1=C1/C(=O)Nc2cc(F)ccc21 | 1.32 | 2.98 | 2.26
38 | 220 | CCN(CC)CCCn1c(=O)/c(=C/c2cc(OC)c(OC)c(OC)c2)s/c1=C1/C(=O)Nc2ccc(Cl)cc21 | 2.02 | 1.65 | 0.82
39 | 1780 | CCN(CC)CCCn1c(=O)/c(=C/c2ccc3c(c2)OCO3)s/c1=C1\C(=O)Nc2ccc(Cl)cc21 | 1.04 | 5.05 | 4.86
